What all share (assay type): in vivo, rat
Series [1] has as its system rats. In words: Conditioned taste aversion (CTA) assay in rats. As to conditions: for saccharin intake relative to total intake (taste aversion): 24 hours post-dosing. On the procedure:
In the CTA study, rats were conditioned to two hour daily access to water, with access to water from two bottles for two hours each day for three days. On the fourth day, rats were given 0.15% saccharin for the two hour period instead of water and saccharin consumption measured. Rats were injected NMU-23 (0, 3, or 10 μg, ICV). LiCl was used as a positive control (0.15 M; 2 ml/kg, i.p.). On the fifth day, rats were given saccharin alone for the first hour, then water was added for the remaining 23 hours. Fluid consumption was measured at 1, 2, and 24 hours post injection. Aversion was assessed as a function of drinking preferences.

The subject of series [2] is rats. As to the kind of experiment: Sodium (salt) appetite aversion assay in rats. As to conditions: sodium-depleted rats. On the procedure: In the salt appetite assay, rats were given 0.5 M NaCl salt water to drink for three days along with food and regular water. After three days, two injections of furosemide (5 mg /0.2 ml, s.c.) were given at one hour apart to sodium-deplete the rats. Rats were then returned to salt-free water and given a sodium-deficient diet. Rats actively seek to defend their internal sodium levels. Consequently, when sodium is depleted, they will avidly drink salt solutions unless ill or nauseous. Twenty-four hours following furosemide administration, rats were given NMU (0, 3, or 10 μg, ICV), or LiCl (0.15 M, 2 ml/kg, i.p.) and given water and 0.5 M NaCl to drink. Fluid consumption was measured 1, 2, and 24 hours post dosing.

For series [3], the system named is rats. In words: Food intake and feeding duration in rats after ICV administration. As to conditions: for overnight food intake, change expressed as percentage of control group: n=12 per group. On the procedure:
Male rats (Charles River Sprague Dawley) weighing 250–350 g were maintained in a temperature and humidity controlled facility with a 12 hour light/dark cycle (4:00 AM lights on). Rats were individually housed in custom designed shoebox cages on wire floors and fed ad libitum with fresh diet provided daily. […] Attached to the food drawers was an infrared feeding monitor that projects a beam across the drawer above the food (MiniMitter, Inc., Sun River, Oreg.). When the animal broke the infrared beam it caused a switch closure. An oscillator then sent off pulses (one pulse/second) and the total number of pulses indicated the length of time that the beam was broken which corresponds to the length of time spent feeding (recorded as feeding duration).
Cannulation and ICV administration were performed essentially as described in Murphy et al 1998 Neuropeptides 32:491–497, which is hereby incorporated by reference. After cannulation, rats were allowed to recover a minimum of seven days before injection with test compounds. All test substances were dissolved in artificial cerebral spinal fluid (aCSF). Rats were injected ICV with 1, 3, or 10 μg of rat NMU-23 (Phoenix Pharmaceuticals). Additional rats were injected ICV with either 0.3 or 0.03 μg of MT-II (Peninsula Laboratories) as a positive control for food intake suppression (melanocortin receptor agonist). […] Another group of ICV-cannulated rats were used in conditioned taste aversion (CTA) and sodium appetite (SA) aversion assays.

We go through 3 molecules from patent US7163799B2, “Neuromedin U receptor NMUR2 and nucleotides encoding it” (Merck & Co., Inc., priority 2000, dated 2007).

Where no end group is shown, it is not given here.

For the molecule `[Cl-].[Li+]` [LiCl], the “saccharin intake (taste aversion)” value in the series with rats [1] (0.15 M, 2 ml/kg i.p., emetic control) was “decreased saccharin intake”. Besides, in the series on rats [2] (0.15 M, 2 ml/kg i.p.), the “salt intake (sodium appetite)” value is reported as “significantly decreased salt intake”.

As to MT-II, the overnight food intake result with rats [3] (0.3 μg ICV, positive control) was “significantly decreased”. The “cumulative feeding duration, change” value in the series with rats [3] (ICV, positive control) is −71%.

For the molecule YKVNEYQGPVAPSGGFFLFRPRN-NH2 [NMU], the “cumulative feeding duration, change” value is −33% in the series with rats [3] (3 μg ICV) and −39% with rats [3] (10 μg ICV). Moreover, the results for the “overnight food intake, change expressed as percentage of control group” value with rats [3] (3 μg ICV) and in the series on rats [3] (10 μg ICV) were −38±6% and −32±3%, respectively. The “saccharin intake relative to total intake (taste aversion)” value in the series with rats [1] (3 μg ICV) and in the series on rats [1] (10 μg ICV) was “did not decrease saccharin intake” in each case. For the same molecule, the “total amount of salt intake (sodium appetite)” value with rats [2] (3 μg ICV) and in the series on rats [2] (10 μg ICV) was “did not significantly change” each time.
